Experimental findings from patent publication US8119589B2, “Modulation of CD4+ T cell responses by a tick saliva protein, Salp15 and polypeptides derived therefrom” (University of North Carolina at Charlotte, priority 2004, dated 2012) are described below.

The test system of assay [1] is splenic T cells from CD4-deficient mice and control T cells. Description: IL-2 production by anti-CD3/CD28 stimulated T cells from CD4-deficient and B6 mice. It counts as cell-based, mouse. Conditions: 50 μg/mL Salp15, 72 hrs. The protocol: T-cells from CD4-deficient and B6 mice (The Jackson Laboratory, Bar Harbor, Me., U.S.A.) were purified by negative selection and activated for 72 hrs using 5 μg/ml of plate bound anti-CD3 and 1 μg/ml of anti-CD28 in the presence or absence of 50 μg/mL of Salp15. DO11.10 transgenic mouse (The Jackson Laboratory) CD4^+ T cells were purified by negative selection as before and incubated in the presence of 106/mL of syngeneic mitomycin C-treated (50 μg/ml for 40 min at 37° C.) antigen presenting cells (APCs) with 10 μg/mL of ovalbumin in the presence of 0.5, 5.0 and 50 μg/mL of Salp15 for 72 hrs. The supernatants were then collected and IL-2 measured by capture ELISA following the manufacturer's instruction (BD Biosciences Pharmingen).

The next assay has as its system CD4+ T cells. Description: Actin polymerization (phalloidin488 staining, F-actin immunoblot, flow cytometry) in activated CD4+ T cells. Particulars: Salp15 pretreatment; effect seen as early as 1 minute of activation. The assay is classed as cell-based, mouse. The method, then:
(§1) For the visualization of lipid rafts, phospho-tyrosine, and cytoskeleton reorganization, CD4^+, CD8^+ or Jurkat cells were cytospun for 10 minutes at 1000 RPM onto positively charged microslides (Fisher Scientific, Hampton, N.H., U.S.A.). The cells were fixed with 3.7% paraformaldehyde (Sigma Chemical Co.) for 15 minutes and stained with CTB594 (Molecular Probes, Eugene, Oreg., U.S.A.), AlexaFluor488 labeled phalloidin (Molecular Probes) or (1:50) biotin-conjugated anti-p-Tyr (PY99) followed by Streptavidin-AlexaFluor594 (1:100, Molecular Probes). […]
Actin polymerization assay was performed as described earlier (Krishnan et al., 2004). […] The cells were washed, resuspended in PBS and analyzed for F-actin content on a FACSCalibur with CellQuest software (Beckton Dickinson, Mountain View, Calif., U.S.A.). […] The cells were washed twice with PBS and analyzed by flow cytometry.
The amount of F-actin in activated CD4+ T cells in the presence and absence of Salp15 was quantified by ultracentrifugation and Western blotting. […] Equal amounts of total protein were loaded on the SDS-gel based on the total actin determined from a sample of the cell lysate.
Background: A western blot detects proteins with antibodies after separation by electrophoresis.

For another assay, the system named is Jurkat cells. As to the kind of experiment: Lipid raft redistribution (CTB594 staining) in activated Jurkat cells. Conditions: Salp15 treatment prior to anti-CD3/CD28 stimulation. The assay is classed as cell-based, human. The method, then:
(§2) Naïve CD4+ T cells from C3H/HeN, Balb/c, and B10.BR mice were purified as previously described (Anguita et al., 2002). CD4+ T cells were preincubated in Click's modified Bruff's Medium (Sigma Chemical Co., St. Louis, Mo., U.S.A.) for 10 minutes at 37° C. with and without Salp15 (50 μg/mL) and stimulated for 20 min or the indicated times at 37° C. with 10 μg/mL of anti-CD3ε, 1 μg/mL of anti-CD28, and 10 μg/mL of anti-armenian and syrian hamster IgG (BD Biosciences Pharmingen, San Jose, Calif., U.S.A.). Jurkat (E6-1) cells were stimulated using 5 μg/mL of OKT3 mAb (eBioscience, San Diego, Calif., U.S.A.) and 1 μg/mL of anti-human CD28 cross linked with 5 μg/mL anti-mouse IgG for the indicated times.
as §1

The next assay has as its system Jurkat clone E6-1. As to the kind of experiment: TCR ligation-induced tyrosine phosphorylation in stimulated Jurkat cells. The assay is classed as cell-based, human. The method, then:
as §2, §1

In the case of “Salp15: secreted salivary protein from Ixodes scapularis, SEQ ID NO: 2; recombinant His-tagged, produced in Drosophila S2 cells”, the “Inhibition (immunosuppressive activity, IL-2)” value is recorded as 33% in assay [1] (T cells from CD4-negative mice) and 85% in assay [1] (control T cells (B6 mice)). Further, the “Phalloidin488 staining / amount of F-actin” value in the assay on CD4+ T cells is recorded as “reduced”. For the same substance, the Lipid raft clustering result in the assay with Jurkat cells is reported as “reduced”. For the same substance, the “Inhibitory effects on TCR ligation-induced tyrosine phosphorylation” value with Jurkat clone E6-1 (Jurkat cells, anti-pTyr staining) is “also observed”. Moreover, the “Inhibition of PLCγ1 phosphorylation” value with Jurkat clone E6-1 (Jurkat clone E6-1) is reported as “also evident”.
